ChEMBL document CHEMBL1128821, “Evaluation of differential hypoxic cytotoxicity and electrochemical studies of nitro 5-deazaflavins” (Bioorg Med Chem Lett, 1995)

Tests used:
V79 [1] = assay: Differential hypoxic cytotoxicity towards chinese hamster cells (V79) using MTT assay under anaerobic conditions; assay type: functional, cell-based; conditions: Cricetulus griseus
V79 [2] = assay: Differential hypoxic cytotoxicity towards chinese hamster cells (V79) using MTT assay under aerobic conditions; assay type: functional, cell-based; conditions: Cricetulus griseus

Row | Structure (SMILES) | IC50 (V79 [1]) | IC50 (V79 [2])
1 | CCCCCCCCCCCCn1c2nc(=O)n(C)c(=O)c-2cc2ccc([N+](=O)[O-])cc21 | 61 µM | 130 µM
2 | CCCCCCCCCCCCn1c2nc(=O)n(C)c(=O)c-2cc2ccccc21 | > 1000 µM | > 1000 µM
3 | CCCCCCCCCCCCn1c2nc(=O)n(C)c(=O)c-2cc2c([N+](=O)[O-])cccc21 | 2.9 µM | 7.2 µM
4 | CCCCCCCCCCCCn1c2nc(=O)[nH]c(=O)c-2cc2cccc([N+](=O)[O-])c21 | 3.6 µM | 1.9 µM
5 | CCCCCCCCn1c2nc(=O)n(-c3ccccc3)c(=O)c-2cc2ccccc21 | > 1000 µM | > 1000 µM
6 | CCCCCCCCn1c2nc(=O)n(-c3ccccc3)c(=O)c-2cc2ccc([N+](=O)[O-])cc21 | 1.2 µM | 6.1 µM
7 | NC(=O)N/N=C/c1ccc([N+](=O)[O-])o1 [NITROFURAZONE] | 270 µM | 740 µM
8 | CCCCCCCCCCCCn1c2nc(=O)[nH]c(=O)c-2cc2ccc([N+](=O)[O-])cc21 | 190 µM | 300 µM
9 | CCCCCCCCn1c2nc(=O)n(-c3ccccc3)c(=O)c-2cc2c([N+](=O)[O-])cccc21 | 0.56 µM | 3.6 µM
10 | CCCCCCCCn1c2nc(=O)n(-c3ccccc3)c(=O)c-2cc2cc([N+](=O)[O-])ccc21 | 19 µM | 27 µM
11 | CCCCCCCCCCCCn1c2nc(=O)n(C)c(=O)c-2cc2cc([N+](=O)[O-])ccc21 | > 1000 µM | > 1000 µM
12 | CCCCCCCCCCCCn1c2nc(=O)[nH]c(=O)c-2cc2ccccc21 | > 1000 µM | > 1000 µM
13 | CCCCCCCCCCCCn1c2nc(=O)[nH]c(=O)c-2cc2cc([N+](=O)[O-])ccc21 | 22 µM | 16 µM
14 | CCCCCCCCn1c2nc(=O)n(-c3ccccc3)c(=O)c-2cc2cccc([N+](=O)[O-])c21 | 3.7 µM | 1.7 µM
15 | CCCCCCCCCCCCn1c2nc(=O)[nH]c(=O)c-2cc2c([N+](=O)[O-])cccc21 | 1.1 µM | 4.3 µM
16 | CCCCCCCCCCCCn1c2nc(=O)n(C)c(=O)c-2cc2cccc([N+](=O)[O-])c21 | > 1000 µM | > 1000 µM
